Earlier results on two substances are cited in US8334001B2, “Composition comprising mucilaginous polysaccharides derived from aloe barbadensis and method for obtaining same and use thereof” (Pharmabrand S.A., priority 2007, dated 2012).

Read-outs that look alike come from different tables or passages of the source.

Data set [1] concerns necrosis factor, kappa B.
The test system of data set [2] is TNF-alfa.

In the case of acemannan, the “activation of the necrosis factor, kappa B” value in data set [1] (concentration of 200 μg/ml) is recorded as “produces an activation”. Regarding aloeride, in data set [2], the “effect on TNF-alfa” value is listed as “increases”. Moreover, the “activation of the necrosis factor, kappa B” value in data set [1] (concentrations of only 0.015% of the aloeride) is “the effect is shown”.
